Laboratory results reported in patent publication US12005039B2, “Methods and compositions relating to lipokines for treating metabolic disorders” (Joslin Diabetes Center, Inc., priority 2018, dated 2024).

What was measured:
[1] = Sisemore et al., 2001; cited from earlier work
[2] = system: differentiated C2C12 cells; test: 14C-palmitic acid uptake and oxidation in C2C12 cells; type: cell-based; details: 1.5 μM, 15 min, vs vehicle
Protocol: (§1) Cells were housed at 37° C., 95% humidity and 5% CO2. C2C12 myoblasts (ATCC; passages 4-7) were maintained in DMEM containing 10% FBS and 1% penicillin/streptomycin. Differentiation was induced by incubating the cells in DMEM containing 2% horse serum and 1% penicillin/streptomycin for 4 days. 3T3-LI adipocytes (ATCC; passages 4-7) were maintained in DMEM containing 10% FBS and 1% penicillin/streptomycin. Differentiation was induced by incubating the cells in DMEM containing […] and 1% penicillin/streptomycin with 400 ng/mL dexamethasone, 1 μg/mL insulin, and 115 μg/mL IBMX for days 0-2, 1 μg/mL insulin for days 2-4, and DMEM with 10% FBS and 1% penicillin/streptomycin only days 4-8.
(§2) mRNA levels of were measured by quantitative RT-PCR using primers (Table 4). Fatty acid uptake and oxidation into differentiated C2C12 muscle cells and 3T3L1 adipocytes measured using ^14C-labeled palmitic acid uptake and conversion of ^14C-labeled palmitic acid into CO2 as previously described (Townsend et al., 2013). Cells were treated with 1.5 μM 12,13-diHOME or methyl acetate vehicle for 15 min, similar to previous studies (Lynes et al., 2017). Oxygen consumption rates (OCR) were measured in starved (1 hour) C2C12 skeletal muscle cells treated with 1.5 μM 12,13-diHOME or methyl acetate vehicle for 15 min and OCR measured in 200 μM palmitate (Seahorse XF24) (Vernochet et al., 2012). […]

3T3-L1 cells [3] = test: 14C-palmitic acid uptake and oxidation in 3T3-L1 cells; type: cell-based; details: 1.5 μM, 15 min, vs vehicle
Protocol: as §1, §2

[4] = system: isolated mouse extensor digitorum longus (EDL); test: 3H-2-deoxyglucose uptake in isolated EDL muscle; details: 300 ng/mL, 1 hour, vs vehicle
Protocol: (§3) For experiments measuring in vivo bioluminescent fatty acid uptake in skeletal muscle, ACTA1cre^+/− mice (Stock no. 006139) were bred with Rosa(stop)Luc^+/+ (Stock no. 005125) (Jackson Laboratory). Experiments measuring skeletal muscle glucose uptake in isolated skeletal muscle glucose uptake were performed in 6 week old, female, CD-1 IGS mice (Charles River Laboratories).
(§4) Isolated skeletal muscle glucose uptake was measured as previously described (Hayashi et al., 1998). Briefly, EDL or soleus muscles were dissected from 6 wk old female CD-1 mice, mounted, and incubated in Krebs-Ringer bicarbonate buffer (KRB) pH 7.4 containing 2 mM pyruvate for 60 min. Both EDL and soleus were incubated with vehicle or 300 ng/mL of 12,13-diHOME. Following treatment, glucose transport activity was measured for an additional 10 min.
(§5) Glucose is an important fuel source utilized during exercise. Accordingly, assays were performed to determine whether 12,13-diHOME increased glucose uptake in skeletal muscle. […] To confirm these findings, isolated mouse soleus and extensor digitorum longus (EDL) skeletal muscles were incubated with either vehicle or 12,13-diHOME for 1 hour.

C2C12 cells = test: Oxygen consumption rate (Seahorse XF24) in C2C12 cells; type: cell-based; details: 1.5 μM, 15 min, 200 μM palmitate, vs vehicle
Protocol: (§6) mRNA levels of were measured by quantitative RT-PCR using primers (Table 4). Fatty acid uptake and oxidation into differentiated C2C12 muscle cells and 3T3L1 adipocytes measured using ^14C-labeled palmitic acid uptake and conversion of ^14C-labeled palmitic acid into CO2 as previously described (Townsend et al., 2013). Cells were treated with 1.5 μM 12,13-diHOME or methyl acetate vehicle for 15 min, similar to previous studies (Lynes et al., 2017). Oxygen consumption rates (OCR) were measured in starved (1 hour) C2C12 skeletal muscle cells treated with 1.5 μM 12,13-diHOME or methyl acetate vehicle for 15 min and OCR measured in 200 μM palmitate (Seahorse XF24) (Vernochet et al., 2012).
To determine if 12,13-diHOME regulated mitochondrial function in muscle, differentiated C2C12 myotubes were incubated with 12,13-diHOME and then analyzed for mitochondrial respiration. 12,13-diHOME incubation increased basal oxygen consumption rate (OCR) and respiratory capacity in C2C12 cells (FIGS. 4A and 4B).

3T3-L1 cells [5] = test: Oxygen consumption rate in 3T3-L1 cells; type: cell-based; details: any condition (data not shown)
[6] = RER by CLAMS in exercise-trained iBAT- mice treated with 12,13-diHOME; type: in vivo; details: iBAT- mice exercise trained 3 weeks, acutely treated with 12,13-diHOME
Protocol: For iBAT-mice, mice were anesthetized using isofluorane. iBAT was surgically removed and the artery immediately cauterized. Sham mice underwent the same surgical procedure, but iBAT was not removed.
(§7) For measurements of respiratory exchange ratio (RER) and energy expenditure, mice were placed in metabolic chambers and injected intravenously with 1 μg/kg body weight 12,13-diHOME in 0.1% BSA PBS or vehicle and then monitored in the Comprehensive Laboratory Animals Monitoring System (CLAMS) at room temperature (22° C.) for 4 h.
Therefore, an analysis of sham and iBAT-mice was performed to determine whether increased 12,13-diHOME with training regulated fat utilization in vivo. Sham and iBAT-mice were sedentary or exercise trained for 3 weeks and subsequently, the RER was measured in metabolic cages. […] In contrast, there was no effect of exercise training on RER in the iBAT-mice.

[7] = Respiratory exchange ratio and energy expenditure by CLAMS in acutely treated mice; type: in vivo; details: wild-type mice, acute injection 1 μg/kg body weight i.v., CLAMS 4 h at room temperature, vs vehicle
Protocol: as §7
A major source of energy for the working skeletal muscles during exercise comes from the uptake and oxidation of fatty acids. To determine whether 12,13-diHOME increases fatty acid uptake and oxidation in skeletal muscle in vivo, a mouse model. ACTA1Cre+/−Rosa(stop)Luc+/−mice, was generated that constitutively expressed a bioluminescent reporter in skeletal muscle. Mice were injected intravenously with FFA-SS-Luc, which is a fatty acid conjugated to luciferin (Henkin et al., 2012; Liao et al., 2005), in the presence of 12,13-diHOME or a vehicle control. […] These surprising in vivo data provided a potential physiological function for the exercise-induced increases in 12,13-diHOME.

[8] = system: mitochondrial and fatty acid oxidation genes; test: Expression of mitochondrial and fatty acid genes in tissues after acute injection (qRT-PCR); details: mice injected in vivo
Protocol: as §6
To identify a mechanism for increased fat utilization with 12,13-diHOME in skeletal muscle, assays were performed to determine the effects of injecting mice with 12,13-diHOME in vivo on the expression of mitochondrial and fatty acid oxidation genes in tibialis anterior muscle. […] However, there was no effect of 12,13-diHOME on mitochondrial or fatty acid oxidation genes in scWAT, pgWAT, liver, or BAT (FIGS. 6D-6G). These findings were consistent with the data showing that 12,13-diHOME regulates fatty acid metabolism in skeletal muscle.

isolated mouse soleus = test: 3H-2-deoxyglucose uptake in isolated soleus muscle; details: 300 ng/mL, 1 hour, vs vehicle
Protocol: as §3, §4, §5

skeletal muscle = test: In vivo bioluminescent fatty acid uptake in skeletal muscle (FFA-SS-Luc); details: ACTA1Cre+/- Rosa(stop)Luc+/- mice
Protocol: as §3
For experiments measuring in vivo bioluminescent fatty acid uptake in skeletal muscle, ACTA1cre^+/− mice (Stock no. 006139) were bred with Rosa(stop)Luc^+/+ (Stock no. 005125)(Jackson Laboratory). Male offspring carrying the cre allele were injected retro-orbitally with 1 μg/kg body weight 12,13-diHOME in 0.1% BSA PBS or methyl acetate as a vehicle and all mice were co-injected with 2 μm FFA-SS-Luc (Intrace Medical). This dose is based on the circulating concentration of 12,13-diHOME in mice that are housed at room temperature, 3 ng/mL (10 nM). After an acute bout of exercise, 12,13-diHOME increased to 10-30 ng/mL (30-100 nM). This is considerably below the reported cytotoxic dose of 100 mg/kg body weight (Sisemore et al., 2001). Mice were anesthetized and imaged (IVIS Spectrum CT) using sequential 30 second exposures for 12 min.
A major source of energy for the working skeletal muscles during exercise comes from the uptake and oxidation of fatty acids. […]

[9] = system: differentiated C2C12 myotubes; test: 3H-2-deoxyglucose uptake in C2C12 cells; type: cell-based; details: 1.5 mM, 15 min, vs vehicle
Protocol: 2-deoxyglucose uptake in C2C12 cells was measured as previously described (Nedachi and Kanzaki, 2006). Briefly, differentiated C2C12 myotubes were serum starved for 3 h in DMEM before any treatment. Cells were incubated with 12,13-diHOME ([…]; 15 min) or insulin (100 nM; 15 min). After stimulation, cells were washed with buffer containing 140 mM NaCl, 20 mM Hepes-Na (pH 7.4), 5 mM KCl, 2.5 mM MgSO4, and 1.0 mM CaCl2. Glucose transport was determined by the addition of ^3H-2-deoxyglucose for glucose for 10 min on ice. Cells were washed with ice-cold saline solution and harvested in 0.05 N NaOH to determine net accumulation of [^3H]-2-deoxyglucose (Nedachi and Kanzaki, 2006).
as §5

CCCCCC(O)C(O)C/C=C\CCCCCCCC(=O)O (stereo not drawn) [12,13-diHOME, 12,13-dihydroxy-9Z-octadecenoic acid]
reported cytotoxic dose [1]: 100 mg/kg body weight
fatty acid oxidation (14C palmitic acid to CO2) [2]: significant increase
fatty acid uptake (14C palmitic acid) [2]: significant increase
fatty acid oxidation (14C palmitic acid to CO2) (3T3-L1 cells [3]): did not increase
fatty acid uptake (14C palmitic acid) (3T3-L1 cells [3]): did not increase
rate of glucose uptake (3H-2DG) [4]: no effect
ATP turnover (C2C12 cells): did not affect
basal oxygen consumption rate (OCR) (C2C12 cells): increased
maximal uncoupled respiration (C2C12 cells): did increase
respiratory capacity (C2C12 cells): increased
OCR (3T3-L1 cells [5]): did not increase OCR under any condition
RER [6]: significantly decreased
energy expenditure [7]: independent of any change in energy expenditure
respiratory exchange ratio (RER) [7]: decreased
expression of mitochondrial or fatty acid oxidation genes ([8]; BAT): no effect
expression of mitochondrial and fatty acid genes ([8]; heart): increased expression of Nrf1 and Nrf2
expression of mitochondrial or fatty acid oxidation genes ([8]; liver): no effect
expression of mitochondrial or fatty acid oxidation genes ([8]; pgWAT): no effect
expression of mitochondrial or fatty acid oxidation genes ([8]; scWAT): no effect
expression of mitochondrial and fatty acid genes ([8]; tibialis anterior muscle): increased expression of several genes involved in mitochondrial activity and biogenesis (citrate synthase, Nrf1, Nrf2), and fatty acid uptake (Cd36, Fatp4)
rate of glucose uptake (3H-2DG) (isolated mouse soleus): no effect
fatty acid uptake in skeletal muscle (luciferase activity) (skeletal muscle; 1 μg/kg body weight injected with FFA-SS-Luc, vs vehicle): increased fatty acid uptake in skeletal muscle
time fatty acid uptake remained significantly elevated above vehicle (skeletal muscle; 1 μg/kg body weight, after injection): 10 min
glucose uptake (3H-2DG) [9]: did not affect glucose uptake
